Experimental data reported in PubChem BioAssay AID1963831 (Molecular Pharmacology Branch, DTP, NCI, 2024).
pIC50: −log10 of the molar value.

Test system: 889142-216-R-J1-PDC complex spheroid viability
Assay: Anticancer human tumor 889142-216-R-J1-PDC patient-derived bladder carcinoma cell line growth inhibition [POLQ]
Details: for pIC50: curve of first compound; for viability, T/C: stronger effect = lower value; active = viability on the fitted dose curve at most 10% of control; inactive = the rest
Method in brief: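 Three-cell-type spheroids modelling solid tumor plus stroma served as the readout system; POL inhibitors were tested individually and in combination, concentration ranges set by clinical Cmax where known.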

[1] = second compound 0.0316 µM, first compound 0.00316 µM
[2] = second compound 0.0316 µM, first compound 0.01 µM
[3] = second compound 0.0316 µM, first compound 0.0316 µM
[4] = second compound 0.0316 µM, first compound 0.1 µM
[5] = second compound 0.1 µM, first compound 0.00316 µM
[6] = second compound 0.1 µM, first compound 0.01 µM
[7] = second compound 0.1 µM, first compound 0.0316 µM
[8] = second compound 0.1 µM, first compound 0.1 µM
[9] = second compound 0.316 µM, first compound 0.00316 µM
[10] = second compound 0.316 µM, first compound 0.01 µM
[11] = second compound 0.316 µM, first compound 0.0316 µM
[12] = second compound 0.316 µM, first compound 0.1 µM
[13] = second compound 1 µM, first compound 0.00316 µM
[14] = second compound 1 µM, first compound 0.01 µM
[15] = second compound 1 µM, first compound 0.0316 µM
[16] = second compound 1 µM, first compound 0.1 µM
[17] = second compound 3.16 µM, first compound 0.00316 µM
[18] = second compound 3.16 µM, first compound 0.01 µM
[19] = second compound 3.16 µM, first compound 0.0316 µM
[20] = second compound 3.16 µM, first compound 0.1 µM
[21] = second compound 10 µM, first compound 0.00316 µM
[22] = second compound 10 µM, first compound 0.01 µM
[23] = second compound 10 µM, first compound 0.0316 µM
[24] = second compound 10 µM, first compound 0.1 µM
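Note: spheroids exposed to compounds for seven days.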
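Throughout, for viability, T/C: 100% = DMSO vehicle control viability.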

CC[C@@]1(O)C(=O)OCc2c1cc1n(c2=O)Cc2cc3c(CN(C)C)c(O)ccc3nc2-1 + Cc1cccc(N(C)C(=O)C2C(O)CCN2c2nc(C)cc(C(F)(F)F)c2C#N)c1
7.19: pIC50 (second compound 10 µM)
< 7.00: pIC50 (second compound 0.0316 µM) | pIC50 (second compound 0.1 µM) | pIC50 (second compound 0.316 µM) | pIC50 (second compound 1 µM) | pIC50 (second compound 3.16 µM)
inactive: viability, T/C (second compound 0.0316 µM, first compound 0.000316 µM) 103% | viability, T/C (second compound 0.0316 µM, first compound 0.001 µM) 103% | viability, T/C [1] 84.2% | viability, T/C [2] 76.5% | viability, T/C [3] 71.2% | viability, T/C [4] 56.8% | viability, T/C (second compound 0.1 µM, first compound 0.000316 µM) 96% | viability, T/C (second compound 0.1 µM, first compound 0.001 µM) 115% | viability, T/C [5] 109% | viability, T/C [6] 83.7% | viability, T/C [7] 73% | viability, T/C [8] 58.9% | viability, T/C (second compound 0.316 µM, first compound 0.000316 µM) 97.8% | viability, T/C (second compound 0.316 µM, first compound 0.001 µM) 111% | viability, T/C [9] 84.4% | viability, T/C [10] 91.8% | viability, T/C [11] 72.6% | viability, T/C [12] 56.6% | viability, T/C (second compound 1 µM, first compound 0.000316 µM) 100% | viability, T/C (second compound 1 µM, first compound 0.001 µM) 121% | viability, T/C [13] 93.2% | viability, T/C [14] 82.2% | viability, T/C [15] 56.2% | viability, T/C [16] 61.2% | viability, T/C (second compound 3.16 µM, first compound 0.000316 µM) 118% | viability, T/C (second compound 3.16 µM, first compound 0.001 µM) 103% | viability, T/C [17] 87.3% | viability, T/C [18] 84% | viability, T/C [19] 59.2% | viability, T/C [20] 57.9% | viability, T/C (second compound 10 µM, first compound 0.000316 µM) 73.2% | viability, T/C (second compound 10 µM, first compound 0.001 µM) 104% | viability, T/C [21] 75% | viability, T/C [22] 68.3% | viability, T/C [23] 52.8% | viability, T/C [24] 48%

CCc1c2c(nc3ccc(O)cc13)-c1cc3c(c(=O)n1C2)COC(=O)[C@]3(O)CC + Cc1cccc(N(C)C(=O)C2C(O)CCN2c2nc(C)cc(C(F)(F)F)c2C#N)c1
8.21: pIC50 (second compound 10 µM)
7.84: pIC50 (second compound 1 µM)
inactive: viability, T/C [1] 68.8% | viability, T/C [2] 48.8% | viability, T/C [3] 50.4% | viability, T/C [4] 30.2% | viability, T/C (second compound 0.0316 µM, first compound 0.316 µM) 35.8% | viability, T/C (second compound 0.0316 µM, first compound 1 µM) 10.7% | viability, T/C [5] 58.9% | viability, T/C [6] 56% | viability, T/C [7] 44.7% | viability, T/C [8] 34% | viability, T/C (second compound 0.1 µM, first compound 0.316 µM) 28.4% | viability, T/C (second compound 0.1 µM, first compound 1 µM) 10.4% | viability, T/C [9] 58.4% | viability, T/C [10] 57.3% | viability, T/C [11] 37.2% | viability, T/C [12] 35.6% | viability, T/C (second compound 0.316 µM, first compound 0.316 µM) 27.7% | viability, T/C (second compound 0.316 µM, first compound 1 µM) 8.37% | viability, T/C [13] 64% | viability, T/C [14] 51.3% | viability, T/C [15] 39% | viability, T/C [16] 35.3% | viability, T/C (second compound 1 µM, first compound 0.316 µM) 31.1% | viability, T/C (second compound 1 µM, first compound 1 µM) 9.07% | viability, T/C [17] 60.5% | viability, T/C [18] 60.4% | viability, T/C [19] 40.9% | viability, T/C [20] 34% | viability, T/C (second compound 3.16 µM, first compound 0.316 µM) 30.3% | viability, T/C [21] 52% | viability, T/C [22] 51.9% | viability, T/C [23] 35.9% | viability, T/C [24] 34.7% | viability, T/C (second compound 10 µM, first compound 0.316 µM) 26.1%
7.85: pIC50 (second compound 0.316 µM)
7.69: pIC50 (second compound 0.0316 µM)
7.77: pIC50 (second compound 0.1 µM)
7.71: pIC50 (second compound 3.16 µM)
active: viability, T/C (second compound 3.16 µM, first compound 1 µM) 5.91% | viability, T/C (second compound 10 µM, first compound 1 µM) 6.24%
